According to PubChem BioAssay AID192 (DTP/NCI, 2004):
Inconclusive results and toxic doses are left out.

System: BDF1 mice, B16 melanoma ip, median survival T/C
Assay: NCI In Vivo Anticancer Drug Screen. Data for tumor model B16 Melanoma (intraperitoneal) in B6D2F1 (BDF1) mice
Conditions: endpoint: median survival time, higher = longer survival
Procedure, shortened: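 Antitumor activity is assessed in mice bearing a transplanted tumor, with survival or tumor size compared against vehicle-dosed controls and expressed as T/C.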

[1] = dose: 25.0 mg/kg/injection, schedule: Q01DX009 (ip), vehicle: saline with Tween-80
[2] = dose: 50.0 mg/kg/injection, schedule: Q01DX009 (ip), vehicle: saline with Tween-80
[3] = dose: 25.0 mg/kg/injection, schedule: Q01DX009 (ip), vehicle: saline
[4] = dose: 50.0 mg/kg/injection, schedule: Q01DX009 (ip), vehicle: saline
[5] = dose: 100.0 mg/kg/injection, schedule: Q01DX009 (ip), vehicle: saline
[6] = dose: 100.0 mg/kg/injection, schedule: Q01DX009 (ip), vehicle: Klucel (hydroxypropylcellulose) (HPC)
[7] = dose: 200.0 mg/kg/injection, schedule: Q01DX009 (ip), vehicle: Klucel (hydroxypropylcellulose) (HPC)
[8] = dose: 400.0 mg/kg/injection, schedule: Q01DX009 (ip), vehicle: Klucel (hydroxypropylcellulose) (HPC)
[9] = dose: 50.0 mg/kg/injection, schedule: Q01DX009 (ip), vehicle: Klucel (hydroxypropylcellulose) (HPC)
[10] = dose: 12.5 mg/kg/injection, schedule: Q01DX009 (ip), vehicle: Klucel (hydroxypropylcellulose) (HPC)
[11] = dose: 25.0 mg/kg/injection, schedule: Q01DX009 (ip), vehicle: Klucel (hydroxypropylcellulose) (HPC)
[12] = dose: 1.56 mg/kg/injection, schedule: Q01DX009 (ip), vehicle: Klucel (hydroxypropylcellulose) (HPC)
[13] = dose: 6.25 mg/kg/injection, schedule: Q01DX009 (ip), vehicle: Klucel (hydroxypropylcellulose) (HPC)
[14] = dose: 3.12 mg/kg/injection, schedule: Q01DX009 (ip), vehicle: Klucel (hydroxypropylcellulose) (HPC)
[15] = dose: 100.0 mg/kg/injection, schedule: Q04DX003 (ip), vehicle: Klucel (hydroxypropylcellulose) (HPC)
[16] = dose: 200.0 mg/kg/injection, schedule: Q04DX003 (ip), vehicle: Klucel (hydroxypropylcellulose) (HPC)
[17] = dose: 400.0 mg/kg/injection, schedule: Q04DX003 (ip), vehicle: Klucel (hydroxypropylcellulose) (HPC)
[18] = dose: 2.0 mg/kg/injection, schedule: Q01DX009 (ip), vehicle: Klucel (hydroxypropylcellulose) (HPC)

Compound: COC1CC(CC2CCC(C)C(C(C)C(=O)O)O2)OC2(OC(C)(C3CCC(C)(C4OC(C5OC(O)(CO)C(C)CC5C)CC4C)O3)CC2C)C1C (stereo not drawn)
- T/C (dose: 0.31 mg/kg/injection, schedule: Q01DX009 (ip), vehicle: Klucel (hydroxypropylcellulose) (HPC)): 102 % of control
- T/C (dose: 0.63 mg/kg/injection, schedule: Q01DX009 (ip), vehicle: Klucel (hydroxypropylcellulose) (HPC)): 89 % of control
- T/C (dose: 1.25 mg/kg/injection, schedule: Q01DX009 (ip), vehicle: Klucel (hydroxypropylcellulose) (HPC)): 92 % of control
- T/C (dose: 2.5 mg/kg/injection, schedule: Q01DX009 (ip), vehicle: Klucel (hydroxypropylcellulose) (HPC)): 92 % of control

Compound: COc1c2occc2cc2ccc(=O)oc12
- T/C (dose: 8.0 mg/kg/injection, schedule: Q01DX009 (ip), vehicle: saline with Tween-80): 104 % of control
- T/C (dose: 16.0 mg/kg/injection, schedule: Q01DX009 (ip), vehicle: saline with Tween-80): 115 % of control
- T/C [1]: 103 % of control
- T/C (dose: 32.0 mg/kg/injection, schedule: Q01DX009 (ip), vehicle: saline with Tween-80): 95 % of control
- T/C (dose: 64.0 mg/kg/injection, schedule: Q01DX009 (ip), vehicle: saline with Tween-80): 114 % of control
- T/C (dose: 100.0 mg/kg/injection, schedule: Q01DX009 (ip), vehicle: saline with Tween-80): 95 % of control
- T/C (dose: 128.0 mg/kg/injection, schedule: Q01DX009 (ip), vehicle: saline with Tween-80): 93 % of control

Compound: COC(=O)C1=CO[C@@H](C)[C@@H]2Cn3ccc4c5ccccc5nc-4c3C[C@H]12
- T/C [1]: 94 % of control
- T/C [2]: 89 % of control

Compound: CCCCCCCCCCCCCCCCN(C)S(=O)(=O)c1ccc2sc(SC)[n+](C)c2c1 (tested in a mixture with another compound)
- T/C (dose: 12.5 mg/kg/injection, schedule: Q04DX003 (ip), vehicle: saline with Tween-80): 100 % of control
- T/C (dose: 25.0 mg/kg/injection, schedule: Q04DX003 (ip), vehicle: saline with Tween-80): 100 % of control

Compound: CCN(CC)Cc1ccccn1
- T/C [3]: 100 % of control
- T/C [4]: 97 % of control
- T/C [5]: 100 % of control

Compound: O=C(Nc1ccccc1)Oc1ccc(Cl)cc1
- T/C [6]: 93 % of control
- T/C [7]: 94 % of control
- T/C [8]: 99 % of control

Compound: CCC(C(N)=O)C1=CCCCC1 (stereo not drawn)
- T/C [6]: 105 % of control
- T/C [7]: 101 % of control

Compound: CSc1nc(=O)[nH]nc1SCc1ccccc1
- T/C [9]: 98 % of control
- T/C [6]: 105 % of control
- T/C [7]: 98 % of control
- T/C [8]: 110 % of control

Compound: O=NN(CCBr)C(=O)NCCBr
- T/C (dose: 50.0 mg/kg/injection, schedule: Q01DX009 (ip), vehicle: gum acacia): 107 % of control
- T/C (dose: 66.0 mg/kg/injection, schedule: Q01DX009 (ip), vehicle: gum acacia): 109 % of control
- T/C (dose: 100.0 mg/kg/injection, schedule: Q01DX009 (ip), vehicle: gum acacia): 116 % of control

Compound: CC1CN=C(c2ccc(NC(=O)c3ccc(C(=O)Nc4ccc(C5=NCC(C)N5)cc4)cc3)cc2)N1 (stereo not drawn)
- T/C [10]: 118 % of control
- T/C [11]: 107 % of control

Compound: NC(=O)Nc1cc(NC(N)=O)cc(N(CCCl)CCCl)c1
- T/C [12]: 88 % of control
- T/C (dose: 3.13 mg/kg/injection, schedule: Q01DX009 (ip), vehicle: Klucel (hydroxypropylcellulose) (HPC)): 101 % of control
- T/C [13]: 91 % of control
- T/C [10]: 96 % of control
- T/C [11]: 108 % of control
- T/C [9]: 98 % of control

Compound: CC(=O)Nc1ccn(C2OC(CO)C(O)C2O)c(=O)n1 (stereo not drawn)
- T/C [1]: 88 % of control
- T/C [2]: 97 % of control
- T/C (dose: 200.0 mg/kg/injection, schedule: Q01DX009 (ip), vehicle: saline with Tween-80): 92 % of control

Compound: CCN(CC)C(=S)SSC(=S)N(CC)CC
- T/C (dose: 0.78 mg/kg/injection, schedule: Q01DX009 (ip), vehicle: Klucel (hydroxypropylcellulose) (HPC)): 110 % of control
- T/C [12]: 86 % of control
- T/C [14]: 97 % of control
- T/C [13]: 105 % of control
- T/C [11]: 92 % of control

Compound: C[N+](C)(C)CCOc1ccc(Cl)cc1
- T/C (dose: 12.5 mg/kg/injection, schedule: Q04DX003 (ip), vehicle: Klucel (hydroxypropylcellulose) (HPC)): 105 % of control
- T/C (dose: 25.0 mg/kg/injection, schedule: Q04DX003 (ip), vehicle: Klucel (hydroxypropylcellulose) (HPC)): 107 % of control
- T/C (dose: 50.0 mg/kg/injection, schedule: Q04DX003 (ip), vehicle: Klucel (hydroxypropylcellulose) (HPC)): 107 % of control
- T/C [15]: 94 % of control

Compound: CCc1ccccc1NC(=O)Nc1ccccc1
- T/C [6]: 90 % of control
- T/C [15]: 100 % of control
- T/C [7]: 90 % of control
- T/C [16]: 100 % of control
- T/C [17]: 92 % of control

Compound: CCCCOc1ccc(OCCCCCCCCCC[N+](C)(C)C)cc1
- T/C [12]: 98 % of control
- T/C [14]: 96 % of control
- T/C [13]: 96 % of control
- T/C [10]: 93 % of control

Compound: CC[CH2][Pb]([CH2]CC)([CH2]CC)[O]C(=O)C(Cl)(Cl)Cl
- T/C [18]: 120 % of control
- T/C (dose: 4.0 mg/kg/injection, schedule: Q01DX009 (ip), vehicle: Klucel (hydroxypropylcellulose) (HPC)): 112 % of control

Compound: COc1cc2c(cc1OC)C(CNC(=O)/C=C/c1ccccc1)C2 (stereo not drawn)
- T/C [6]: 122 % of control
- T/C [7]: 97 % of control
- T/C [8]: 94 % of control

Compound: C=Cc1cc(OC)c2c(c1)c(=O)oc1c2cc(OC)c2c(O)ccc(C3OC(C(C)O)C(O)C3O)c21 (stereo not drawn)
- T/C [6]: 159 % of control
- T/C [8]: 113 % of control

Compound: CCC(Br)C(=O)Nc1c(C)cccc1Cl (stereo not drawn)
- T/C [11]: 106 % of control
- T/C [9]: 93 % of control
- T/C [6]: 93 % of control

Compound: c1ccc(CCN2CCCCC2)nc1
- T/C (dose: 1.56 mg/kg/injection, schedule: Q01DX009 (ip), vehicle: saline): 109 % of control
- T/C (dose: 3.13 mg/kg/injection, schedule: Q01DX009 (ip), vehicle: saline): 106 % of control
- T/C (dose: 6.25 mg/kg/injection, schedule: Q01DX009 (ip), vehicle: saline): 100 % of control

Compound: Cc1cc(C)cc(OC(=O)Nc2ccccc2Cl)c1
- T/C [15]: 96 % of control
- T/C [16]: 96 % of control
- T/C [17]: 106 % of control

Compound: O=C(O)c1ccccc1C(=O)c1ccc(CBr)cc1
- T/C (dose: 0.05 mg/kg/injection, schedule: Q01DX009 (ip), vehicle: saline): 100 % of control
- T/C (dose: 0.1 mg/kg/injection, schedule: Q01DX009 (ip), vehicle: saline): 97 % of control
- T/C (dose: 0.2 mg/kg/injection, schedule: Q01DX009 (ip), vehicle: saline): 100 % of control
- T/C (dose: 0.38 mg/kg/injection, schedule: Q04DX003 (ip), vehicle: saline with Tween-80): 91 % of control
- T/C (dose: 0.75 mg/kg/injection, schedule: Q04DX003 (ip), vehicle: saline with Tween-80): 95 % of control
- T/C (dose: 1.5 mg/kg/injection, schedule: Q01DX009 (ip), vehicle: saline with Tween-80): 87 % of control
- T/C (dose: 1.5 mg/kg/injection, schedule: Q04DX003 (ip), vehicle: saline with Tween-80): 100 % of control
- T/C (dose: 1.56 mg/kg/injection, schedule: Q04DX003 (ip), vehicle: saline with Tween-80): 100 % of control

Compound: CCC1OC2(C)C(O)C(/C=C/C=C/C=C/c3oc(=O)cc(OC)c3C)OC1(C)C2OC(C)=O (stereo not drawn)
- T/C (dose: 0.5 mg/kg/injection, schedule: Q01DX009 (ip), vehicle: Klucel (hydroxypropylcellulose) (HPC)): 94 % of control
- T/C (dose: 1.0 mg/kg/injection, schedule: Q01DX009 (ip), vehicle: Klucel (hydroxypropylcellulose) (HPC)): 93 % of control
- T/C [18]: 94 % of control

Compound: COc1cc(C(=O)N2CCOCC2)cc(OC)c1OC
- T/C [11]: 110 % of control
- T/C [9]: 102 % of control
- T/C [6]: 92 % of control
- T/C [7]: 97 % of control
- T/C [8]: 102 % of control

Compound: CN1CCc2cc3c(cc2C1)OCO3
- T/C [3]: 94 % of control
- T/C [4]: 93 % of control
- T/C [5]: 95 % of control

Compound: C[C@]12CCC(=O)C=C1CC[C@@H]1[C@@H]2C(=O)C[C@@]2(C)[C@H]1CC[C@]2(O)C(=O)CO
- T/C (dose: 40.0 mg/kg/injection, schedule: Q02DX009 (ip), vehicle: Klucel (hydroxypropylcellulose) (HPC)): 100 % of control
- T/C (dose: 80.0 mg/kg/injection, schedule: Q02DX009 (ip), vehicle: Klucel (hydroxypropylcellulose) (HPC)): 112 % of control
- T/C (dose: 160.0 mg/kg/injection, schedule: Q02DX009 (ip), vehicle: Klucel (hydroxypropylcellulose) (HPC)): 97 % of control
- T/C (dose: 640.0 mg/kg/injection, schedule: Q02DX009 (ip), vehicle: Klucel (hydroxypropylcellulose) (HPC)): 97 % of control
